Values quoted from earlier work as cited in patent US20080260691A1 (priority 2004, published 2008).

What was measured:
[1] = in vivo
[2] = not given; remark: listed apart in the source
[3] = all animal species exposed

N[C@@H](CCC(=O)O)C(=O)O [Glu]
in vitro hydrolysis t½ rat hepatic microsomes: 30 min

NCCCC[C@H](N)C(=O)O [Lys]
in vitro hydrolysis t½ rat hepatic microsomes: 14 min

N[C@@H](Cc1ccccc1)C(=O)O [Phe]
in vitro hydrolysis t½ rat hepatic microsomes: 30 min

N[C@@H](Cc1ccc(O)cc1)C(=O)O [Tyr]
in vitro hydrolysis t½ rat hepatic microsomes: 5 min

Nc1nc2c(ncn2COCCO)c(=O)[nH]1 [acyclovir]
bioavailability [1]: 15-30%

NC(=O)c1ncn([C@@H]2O[C@H](CO)[C@@H](O)[C@H]2O)n1 [ribavirin]
total bioavailability, average ([2]; averages): 64% | multiple-dose half-life ([2]; multiple-dose): 12 days | portion of drug excreted in urine as intact drug or as metabolites ([2]; oral, within 72-80 hours): approx. 53% | bioavailability (low and variable) ([2]; range): 33-69% | portion of a single oral dose excreted in feces ([2]; single oral dose, within 72 hours): Approximately 15% | teratogenic and/or embryocidal effects [3]: Significant teratogenic and/or embryocidal effects

CC(C)[C@H](N)C(=O)OCCOCn1cnc2c(=O)[nH]c(N)nc21 [valacyclovir]
bioavailability [1]: 54%
